Results as given in ChEMBL document CHEMBL1201862, “PubChem BioAssay data set” (2004).
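Compound exposure: 48 hours, 5 concentrations, 96-well plates. Abbreviation: GI50, concentration required for 50% inhibition of growth.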 Calls of active or inactive are those of the source. No stated cut-off is given here; in the data, active = GI50 up to about 1.1 µM and inactive = higher. Where a SMILES comes first, the peptide text is derived from it. [ ]: non-standard residue; d: D form. The star is where a group is joined. ξ: configuration not given here. X38 = O=C(OCc1ccccc1)[C@@H]1CCC[C@H]1N*; Fmoc = O=C(OCC1c2ccccc2-c2ccccc21)*; ξW = NC(Cc1c[nH]c2ccccc12)C(=O)O; ξF = NC(Cc1ccccc1)C(=O)O; Boc = CC(C)(C)OC(=O)*; ξK = NCCCCC(N)C(=O)O; ξT = CC(O)C(N)C(=O)O; tBu = CC(C)(C)*

Assays:
Assay in all cases: inhibition of tumour cell growth, NCI panel, 48 h
OVCAR-4 = tested on: OVCAR-4
SW-620 = tested on: SW-620
UACC-62 = tested on: UACC-62
HL-60 = tested on: HL-60
NCI-H23 = tested on: NCI-H23
HCT-15 = tested on: HCT-15
OVCAR-8 = tested on: OVCAR-8
K562 = tested on: K562
CCRF-CEM = tested on: CCRF-CEM
NCI-H226 = tested on: NCI-H226
SNB-19 = tested on: SNB-19
SK-MEL-28 = tested on: SK-MEL-28
CAKI-1 = tested on: CAKI-1
KM12 = tested on: KM12
MDA-MB-231 = tested on: MDA-MB-231
A498 = tested on: A498
MOLT-4 = tested on: MOLT-4
U-251 = tested on: U-251
SR = tested on: SR
BT-549 = tested on: BT-549
HCC 2998 = tested on: HCC 2998
SN12C = tested on: SN12C
TK-10 = tested on: TK-10
SNB-75 = tested on: SNB-75
MDA-MB-435 = tested on: MDA-MB-435
HOP-92 = tested on: HOP-92
MDA-N = tested on: MDA-N
SF-268 = tested on: SF-268
NCI/ADR-RES = tested on: NCI/ADR-RES
ACHN = tested on: ACHN
RPMI-8226 = tested on: RPMI-8226
UACC-257 = tested on: UACC-257
EKVX = tested on: EKVX
UO-31 = tested on: UO-31
NCI-H460 = tested on: NCI-H460
SK-OV-3 = tested on: SK-OV-3
IGROV-1 = tested on: IGROV-1
SF-295 = tested on: SF-295
786-0 = tested on: 786-0
HCT-116 = tested on: HCT-116
LOX IMVI = tested on: LOX IMVI
HOP-62 = tested on: HOP-62
PC-3 = tested on: PC-3
NCI-H522 = tested on: NCI-H522
COLO 205 = tested on: COLO 205
T47D = tested on: T47D
Malme-3M = tested on: Malme-3M
OVCAR-3 = tested on: OVCAR-3
MCF7 = tested on: MCF7
SK-MEL-2 = tested on: SK-MEL-2
SF-539 = tested on: SF-539
SK-MEL-5 = tested on: SK-MEL-5
RXF 393 = tested on: RXF 393
DU-145 = tested on: DU-145
HT-29 = tested on: HT-29
OVCAR-5 = tested on: OVCAR-5
A549 = tested on: A549
M14 = tested on: M14
Hs-578T = tested on: Hs-578T

Measured: GI50

CC1(C)C2CCC(CN)(C2)C1O (configuration not stated)
inactive: OVCAR-4 > 100 µM | SW-620 > 100 µM | UACC-62 > 100 µM | HL-60 > 100 µM | NCI-H23 > 100 µM | OVCAR-8 > 100 µM | K562 > 100 µM | CCRF-CEM > 100 µM | NCI-H226 > 100 µM | SNB-19 > 100 µM | SK-MEL-28 > 100 µM | CAKI-1 > 100 µM | KM12 > 100 µM | MDA-MB-231 > 100 µM | A498 > 100 µM | MOLT-4 > 100 µM | U-251 > 100 µM | SR > 100 µM | BT-549 > 100 µM | HCC 2998 > 100 µM | SN12C > 100 µM | TK-10 > 100 µM | SNB-75 > 100 µM | MDA-MB-435 65.6 µM | HOP-92 > 100 µM | MDA-N > 100 µM | SF-268 > 100 µM | NCI/ADR-RES 80.2 µM | ACHN > 100 µM | RPMI-8226 > 100 µM | UACC-257 > 100 µM | EKVX > 100 µM | UO-31 > 100 µM | NCI-H460 > 100 µM
> 100 µM: HCT-15

CC(OC(C)(C)C)C(NC(=O)C(CCCCNC(=O)OC(C)(C)C)NC(=O)C(Cc1c[nH]c2ccccc12)NC(=O)C(Cc1ccccc1)NC(=O)OCC1c2ccccc2-c2ccccc21)C(=O)NC(Cc1ccccc1)C(=O)N[C@@H]1CCC[C@H]1C(=O)OCc1ccccc1 (some centres not stated) (Fmoc-[ξF][ξW][ξK](Boc)[ξT](tBu)[ξF]-X38)
inactive: OVCAR-4 > 100 µM | SK-OV-3 > 100 µM | SW-620 > 100 µM | UACC-62 > 100 µM | HL-60 > 100 µM | IGROV-1 > 100 µM | SF-295 > 100 µM | NCI-H23 > 100 µM | OVCAR-8 > 100 µM | 786-0 > 100 µM | HCT-116 > 100 µM | LOX IMVI > 100 µM | K562 > 100 µM | CCRF-CEM > 100 µM | NCI-H226 > 100 µM | HOP-62 > 100 µM | SK-MEL-28 > 100 µM | CAKI-1 62.2 µM | PC-3 > 100 µM | NCI-H522 > 100 µM | KM12 > 100 µM | MDA-MB-231 65.3 µM | A498 > 10 µM | MOLT-4 > 100 µM | U-251 > 100 µM | SR > 100 µM | HCC 2998 > 100 µM | COLO 205 > 100 µM | SN12C > 100 µM | T47D > 100 µM | Malme-3M > 100 µM | OVCAR-3 > 100 µM | TK-10 > 100 µM | SNB-75 > 100 µM | MCF7 > 100 µM | SK-MEL-2 32.1 µM | MDA-MB-435 > 100 µM | HOP-92 > 100 µM | SF-539 > 100 µM | MDA-N > 100 µM | SK-MEL-5 14.6 µM | RXF 393 > 100 µM | DU-145 > 100 µM | SF-268 > 100 µM | HT-29 > 100 µM | NCI/ADR-RES > 100 µM | OVCAR-5 > 100 µM | A549 > 100 µM | ACHN > 100 µM | M14 38.9 µM | RPMI-8226 > 100 µM | Hs-578T 31 µM | UACC-257 > 100 µM | EKVX > 100 µM | UO-31 > 100 µM | NCI-H460 > 100 µM
> 100 µM: HCT-15
